Source: article PMC3356437 (Peptides, 2012)
In brackets after ≈: the same amount, converted by molar mass. Where two headings read alike, the source gives them in different places. Where a SMILES comes first, the peptide text is derived from it.

Legend:
P. aeruginosa PAO1 = format: cell-based, Pseudomonas aeruginosa
E. coli DHα5 = format: cell-based, Escherichia coli
P. gingivalis W50 = format: cell-based, Porphyromonas gingivalis
[1] = molecular target: T1, LPS-binding protein (LBP) (Homo sapiens, UniProt P18428); test: LPS binding to LPS-binding protein; conditions: LPS + 180–200 μg/ml GL13K; mean ± SEM, N=3
T1 sequence (P18428 26-481): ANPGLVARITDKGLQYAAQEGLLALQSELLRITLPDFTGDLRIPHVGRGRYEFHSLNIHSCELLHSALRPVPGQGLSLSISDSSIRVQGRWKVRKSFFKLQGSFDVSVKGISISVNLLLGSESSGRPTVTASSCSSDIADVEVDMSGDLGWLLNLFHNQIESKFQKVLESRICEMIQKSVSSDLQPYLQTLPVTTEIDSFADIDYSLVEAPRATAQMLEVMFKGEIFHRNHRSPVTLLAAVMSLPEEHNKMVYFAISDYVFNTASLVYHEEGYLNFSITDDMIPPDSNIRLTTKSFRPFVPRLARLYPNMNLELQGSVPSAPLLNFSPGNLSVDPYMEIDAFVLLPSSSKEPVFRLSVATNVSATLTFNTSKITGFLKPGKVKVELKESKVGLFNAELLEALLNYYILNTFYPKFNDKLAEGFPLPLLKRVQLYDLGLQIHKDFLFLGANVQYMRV

red blood cells [2] = tested on: red blood cells
red blood cells [3] = conditions: cited from earlier work
[4] = tested on: P. gingivalis (53977, DPG3, W50); test: Bacterial killing assay; format: cell-based, Porphyromonas gingivalis; conditions: three strains, 200 μg/ml peptide, 2 ½ hours, 35°C, CFU
E. coli = format: cell-based, Escherichia coli; conditions: 50% saliva (45% in legend) in PBS, 2 hours, 35°C

Row | Molecule | MIC (P. aeruginosa PAO1) | MIC (E. coli DHα5) | MIC, 50% saliva (E. coli DHα5) | MIC (P. gingivalis W50; W50) | Bactericidal activity [4] | Reduction of CFU / bactericidal activity in the presence of saliva (E. coli) | also measured
1 | CC[C@H](C)[C@H](NC(=O)[C@H](CCC(N)=O)NC(=O)CN)C(=O)N[C@H](C(=O)N[C@@H](CC(N)=O)C(=O)N[C@@H](CC(C)C)C(=O)N[C@@H](CCCCN)C(N)=O)[C@@H](C)CC [GK7NH2] (H-GQIINLK-NH2) | >167 µg/mL | >200 µg/mL | >167 µg/mL | >167 µg/mL |  |  | 
2 | CC[C@H](C)[C@H](NC(=O)[C@H](CCCCN)NC(=O)CN)C(=O)N[C@H](C(=O)N[C@@H](CCCCN)C(=O)N[C@@H](CC(C)C)C(=O)N[C@@H](CCCCN)C(=O)N[C@@H](C)C(=O)N[C@@H](CO)C(=O)N[C@@H](CC(C)C)C(=O)N[C@@H](CCCCN)C(=O)N[C@@H](CC(C)C)C(=O)N[C@@H](CC(C)C)C(N)=O)[C@@H](C)CC [GL13K] (H-GKIIKLKASLKLL-NH2) |  | 5 µg/mL (≈ 3.51 µM) | 50 µg/mL (≈ 35.1 µM) |  |  |  | LBP binding of LPS relative to LPS alone (100%) [1]: 45.3%±9.7% (N=3); Hemagglutination (red blood cells [2]): did not cause hemagglutination
3 | CC[C@H](C)[C@H](NC(=O)[C@H](CCC(N)=O)NC(=O)CN)C(=O)N[C@H](C(=O)N[C@@H](CC(N)=O)C(=O)N[C@@H](CC(C)C)C(=O)N[C@@H](CCCCN)C(=O)N[C@@H](C)C(=O)N[C@@H](CO)C(=O)N[C@@H](CC(C)C)C(=O)N[C@@H](CC(=O)O)C(=O)N[C@@H](CC(C)C)C(=O)N[C@@H](CC(C)C)C(N)=O)[C@@H](C)CC [GL13NH2] (H-GQIINLKASLDLL-NH2) | >167 µg/mL | >200 µg/mL |  | >167 µg/mL |  |  | Hemagglutination (caused, implied by contrast with GL13K) (red blood cells [3]): hemagglutination
4 | CC[C@H](C)[C@H](NC(=O)[C@H](CCCCN)NC(=O)[C@H](CCC(=O)O)NC(=O)[C@H](CCCCN)NC(=O)[C@H](CO)NC(=O)[C@H](CCCCN)NC(=O)[C@H](CCCNC(=N)N)NC(=O)[C@H](Cc1ccccc1)NC(=O)[C@H](Cc1ccccc1)NC(=O)[C@H](CC(=O)O)NC(=O)CNC(=O)[C@H](CC(C)C)NC(=O)[C@@H](N)CC(C)C)C(=O)NCC(=O)N[C@@H](CCCCN)C(=O)N[C@@H](CCC(=O)O)C(=O)N[C@@H](Cc1ccccc1)C(=O)N[C@@H](CCCCN)C(=O)N[C@@H](CCCNC(=N)N)C(=O)N[C@H](C(=O)N[C@H](C(=O)N[C@@H](CCC(N)=O)C(=O)N[C@@H](CCCNC(=N)N)C(=O)N[C@H](C(=O)N[C@@H](CCCCN)C(=O)N[C@@H](CC(=O)O)C(=O)N[C@@H](Cc1ccccc1)C(=O)N[C@@H](CC(C)C)C(=O)N[C@@H](CCCNC(=N)N)C(=O)N[C@@H](CC(N)=O)C(=O)N[C@@H](CC(C)C)C(=O)N[C@H](C(=O)N1CCC[C@H]1C(=O)N[C@@H](CCCNC(=N)N)C(=O)N[C@H](C(=O)N[C@@H](CCC(=O)O)C(=O)N[C@@H](CO)C(=O)O)[C@@H](C)O)C(C)C)[C@@H](C)CC)C(C)C)[C@@H](C)CC [LL-37] |  |  |  |  | killed | less than 90% | MIC (P. gingivalis W50; broth dilution in Pg broth, 10^4 CFU, OD 570 nm, seven independent experiments): 25 µg/mL (≈ 5.56 µM)
5 | polymyxin B |  |  |  |  | ineffective | retained bactericidal activity | 
